≈ marks a conversion by molar mass, not a printed value. Read-outs that look alike come from different tables or passages of the source.
Legend:
Type in all cases: cell-based, human
MCF-7 = test: MTT drug resistance determination to conventional chemotherapeutic drugs; details: 68 h
Text: (§1) The following cell lines were used: K562 (human chronic myeloid leukemia cell line) and K562/Adr (a cell line with drug-resistance to chemotherapeutic drugs such as Adriamycin induced by a long-term exposure to a low dosage of Adriamycin); KB (human oral epithelia cell line) and KBv200 (a cell line with drug-resistance to chemotherapeutic drugs such as Vincristine induced by a long-term exposure to a low dosage of Vincristine); MCF-7 (human mammary cancer cell line) and MCF-7/Adr (a cell line with drug-resistance to chemotherapeutic drugs such as Adriamycin induced by a long-term exposure to a low dosage of Adriamycin). All the cell lines mentioned above were purchased from Institute of Hematology, Chinese Academy of Medical Sciences.
(§2) Half-inhibitory concentration (IC50) was calculated by the GraphPad Prism software (San Diego, Calif.). Drug reaction was analyzed by Sigmoldal non-linear regression model.
(§3) The cells at logarithmic phase were collected and added into RPMI 1640 medium (containing 10% fetal bovine serum) to prepare a cell suspension. Then the cell suspension was plated onto a 96-well plate at 100 μl per well (1×10^4 cell/well). Adriamycin, Vincristine, Taxol, cisplatin of different concentration gradients were directly added to the semi-suspending cells (K562 and K562/Adr). The adherent cells were cultured for 24 hours after inoculation so that they could adhere completely, and then the drugs mentioned above in different concentrations were added. There were six parallel repeated wells for every concentration gradient. The medium was added up to a final volume of 200 μl per well. The cells were cultured at the condition of 37° C., saturated humidity, 5% CO2 for 68 hours. 50 μl MTT (2 mg/mL) per well was added. The 96-well plate was centrifuged and the supernatant was removed. Then 120 μl DMSO per well was added and vibrated by vibrator. The OD value was determined at a wavelength of 590 nm by enzyme labeling instrument after the crystal was dissolved completely.
(§4) The calculating method: IC50=drug concentration when the inhibitory rate was 50%.
(§5) Drug resistant factor (RF)=the IC50 of the drug resistant cells/the IC50 of the sensitive cells.

KB = test: as above; details: drug alone, 68 h
Text: as §1, §2, §3, §4, §5

K562 = test: as above; details: K562, drug alone, 68 h
Text: as §1, §2, §3, §4, §5

MCF-7/Adr = test: as above; details: for RF (drug resistant factor): IC50 MCF-7/Adr / IC50 MCF-7; for IC50: MCF-7/Adr, drug alone, 68 h, MTT
Text: as §1
Similarly, the multi-drug resistant cell line of MCF-7/Adr is also mainly characterized by the concurrency of multiple resistant mechanisms including the increased expression of P-gp and Bcl-2 family proteins, and the enhanced activity of glyoxalase I, etc.
as §2, §3, §4, §5

K562/Adr cells = test: Sensitizing effect of PA to conventional chemotherapeutic drugs (MTT); details: drug alone, 68 h; for IC50: Homo sapiens, read-out: IC50 of anti-tumor drug, Ctrl (without PA)
Protocol: (§6) The cells at logarithmic phase were collected and added into RPMI 1640 medium (containing 10% fetal bovine serum) to make cell suspensions. The cell suspension was added to 96-well plate at 100 μl per well, and the cell number was 2×10^3 (suspending cells) or 1×10^3 (adherent cells) per well. After inoculation, the suspending cells were adapted for half an hour on the plate and the adherent cells were cultivated to allow adhesion before the drugs were added. The control groups (Ctrl) were added with anti-tumor drugs but without PA. The drug concentration of each PA group was 10 μg/mL. The concentrations of chemotherapeutic drugs increased from 0.001 μg/mL to 20 μg/mL. There Were six parallel repeated wells for every concentration gradient. RPMI 1640 was added up to a finally volume of 200 μl per well. The cells were cultured at the condition of 37° C., saturated humidity, 5% CO2 for 68 hours. The MTT was determined and the IC50 was calculated as in example 4.
(§7) The formula of resistant factor: Resistant Factor (RF)=the IC50 without sensitizer/the IC50 with sensitizer.

KBv200 cells = test: as above; details: KBv200, drug alone, 68 h; for IC50: Homo sapiens, read-out: IC50 of anti-tumor drug, Ctrl (without PA)
Protocol: as §6, §7

MCF-7/Adr cells = test: as above; details: drug alone, 68 h; for IC50: Homo sapiens, NCI/ADR-RES, read-out: IC50 of anti-tumor drug, Ctrl (without PA)
Protocol: as §6, §7

KBv200 = test: MTT drug resistance determination to conventional chemotherapeutic drugs; details: for RF (drug resistant factor): IC50 KBv200 / IC50 KB; for IC50: KBv200, drug alone, 68 h, MTT
Text: as §1
The multi-drug resistant cell line, of KBv200 is also mainly characterized by the concurrency of multiple resistant mechanisms including the increased expression of P-gp and Bcl-2 family proteins, and the enhanced activity of glyoxalase I, etc. KBv200 is resistant to Vincristine more than 100 folds in comparison with KB, and cross-resistant to […], Daunomycin, Mitoxantrone, Taxol, etc.
as §2, §3, §4, §5

K562/Adr = test: as above; details: for RF (drug resistant factor): IC50 K562/Adr / IC50 K562; for IC50: K562/Adr, drug alone, 68 h, MTT
Text: as §1
The multi-drug resistant cell line of K562/Adr is mainly characterized by the concurrency of multiple resistant mechanisms including the increased expression of P-gp and Bcl-2 family proteins, and the enhanced activity of glyoxalase I, etc. K562/Adr is resistant to Adriamycin 20 folds more than K562, and cross-resistant to Vincristine, Daunomycin, Mitoxantrone, Taxol, etc.
as §2, §3, §4, §5

[1] = Homo sapiens, MCF7, MCF-7, drug alone, read-out: IC50
[2] = Homo sapiens, NCI/ADR-RES, read-out: IC50

## N.N.[Cl][Pt][Cl] [DDP, Cisplatin]
MCF-7; MCF-7, drug alone
  IC50: 0.6453 ± 0.1675 µg/mL
KB
  IC50: 0.5509 ± 0.094 µg/mL
K562
  IC50: 0.2274 ± 0.078 µg/mL
MCF-7/Adr
  RF (drug resistant factor): 11.38
  IC50: 7.342 ± 0.764 µg/mL
K562/Adr cells; in µg/mL
  IC50 of anti-tumor drug, Ctrl (without PA): 5.311 ± 0.4429
KBv200 cells; in µg/mL
  IC50 of anti-tumor drug, Ctrl (without PA): 5.868 ± 0.2438
MCF-7/Adr cells; in µg/mL
  IC50 of anti-tumor drug, Ctrl (without PA): 7.708 ± 1.077
KBv200
  RF (drug resistant factor): 14.13
  IC50: 7.785 ± 0.6536 µg/mL
K562/Adr
  RF (drug resistant factor): 4.727
  IC50: 1.075 ± 0.5646 µg/mL

## CC(=O)O[C@H]1C(=O)[C@@]2(C)[C@H]([C@H](OC(=O)c3ccccc3)[C@]3(O)C[C@H](OC(=O)[C@H](O)[C@@H](NC(=O)c4ccccc4)c4ccccc4)C(C)=C1C3(C)C)[C@]1(OC(C)=O)CO[C@@H]1C[C@@H]2O [Taxol, paclitaxel]
MCF-7; [1]
  IC50: 0.0415 ± 0.003 µg/mL (≈ 0.0486 µM)
KB; Homo sapiens, read-out: IC50
  IC50: 0.032 ± 0.001 µg/mL (≈ 0.0375 µM)
K562; Homo sapiens, read-out: IC50
  IC50: 0.0247 ± 0.001 µg/mL (≈ 0.0289 µM)
MCF-7/Adr; [2]
  IC50: 0.743 ± 0.21 µg/mL (≈ 0.87 µM)
MCF-7/Adr
  RF (drug resistant factor): 17.65
K562/Adr cells
  IC50: 0.8225 ± 0.0073 µg/mL
KBv200 cells
  IC50: 1.01 ± 0.0421 µg/mL
MCF-7/Adr cells
  IC50: 0.906 ± 0.213 µg/mL
KBv200; Homo sapiens, read-out: IC50
  IC50: 1.348 ± 0.002 µg/mL (≈ 1.58 µM)
KBv200
  RF (drug resistant factor): 42.12
K562/Adr; Homo sapiens, read-out: IC50
  IC50: 0.932 ± 0.092 µg/mL (≈ 1.09 µM)
K562/Adr
  RF (drug resistant factor): 37.72

## CC[C@]1(O)C[C@H]2CN(CCc3c([nH]c4ccccc34)[C@@](C(=O)OC)(c3cc4c(cc3OC)N(C=O)[C@H]3[C@@](O)(C(=O)OC)[C@H](OC(C)=O)[C@]5(CC)C=CCN6CC[C@]43[C@@H]65)C2)C1 [VCR, Vincristine]
MCF-7; [1]
  IC50: 0.096 ± 0.014 µg/mL (≈ 0.116 µM)
KB; Homo sapiens, read-out: IC50
  IC50: 0.153 ± 0.092 µg/mL (≈ 0.185 µM)
K562; Homo sapiens, read-out: IC50
  IC50: 0.218 ± 0.011 µg/mL (≈ 0.264 µM)
MCF-7/Adr; [2]
  IC50: 18.6 ± 1.75 µg/mL (≈ 22.5 µM)
MCF-7/Adr
  RF (drug resistant factor): 193.75
K562/Adr cells
  IC50: 12.1 ± 0.349 µg/mL
KBv200 cells
  IC50: 10.7 ± 0.992 µg/mL
MCF-7/Adr cells
  IC50: 14.1 ± 1.95 µg/mL
KBv200; Homo sapiens, read-out: IC50
  IC50: 21.3 ± 1.21 µg/mL (≈ 25.9 µM)
KBv200
  RF (drug resistant factor): 139.5
K562/Adr; Homo sapiens, read-out: IC50
  IC50: 12.2 ± 0.576 µg/mL (≈ 14.7 µM)
K562/Adr
  RF (drug resistant factor): 55.73
